Test results as given in ChEMBL document CHEMBL1149402, “New potential antibacterials: a synthetic route to N-aryloxazolidinone/3-aryltetrahydroisoquinoline hybrids” (2006).

Tested on: Staphylococcus aureus
Assay: Antibacterial activity against methicillin-susceptible Staphylococcus aureus ATCC 29213
Type: functional

MIC: > 64 µg/mL
Compound: Br.CC(=O)NC[C@H]1CN(c2ccc(C3Cc4cc(O)c(O)cc4CN3)cc2)C(=O)O1 (stereo partly specified)
